Data: US20260042764A1, “COMPOSITIONS AND METHODS FOR INHIBITION OF KRAS” (TheRas, Inc., priority 2022, published 2026)

Tests used:
[1] = target: T1, Avi-KRAS G12D (1-169) GppNHp/RAF1 RBD-3xFLAG (52-151) (Homo sapiens, UniProt P01116, G12D); assay: Raf1-KRAS G12D-GppNHP disruption HTRF assay (Biological Example 1); type: binding
T1 construct: Avi-KRAS G12D (1-169)
Procedure, shortened: (§1)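 HTRF PPI disruption; buffer 50 mM Tris pH 7.5, 100 mM NaCl, 5 mM MgCl2, 0.1% BSA, 0.01% Tween, 10% DMSO. Protein mix 1 h RT shaking, reagent mix 1 h RT shaking. Data as % activity vs DMSO (100%).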

[2] = target: T2, Avi-KRAS G12V (1-169) GppNHp/RAF1 RBD-3xFLAG (52-151) (Homo sapiens, UniProt P01116, G12V); assay: Raf1-KRAS G12V-GppNHP disruption HTRF assay (Biological Example 1); type: binding
T2 construct: Avi-KRAS G12V (1-169)
Procedure, shortened: as §1

GP2d cells (KRAS G12D) = assay: Cell-based pERK HTRF assay in GP2d cell (Biological Example 2); details: GP2d (KRAS G12D) cells
Procedure, shortened: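 60 min compound, 0.25% DMSO, 9-pt half-log curve from 1 μM or 100 nM; DMEM/10% FBS.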

[3] = target: T3, Avi-KRAS G12V (2-169) GTP/RAF1 RBD-3xFLAG (51-131) (Homo sapiens, UniProt P01116, G12V); assay: Raf1-KRAS G12V-GTP disruption HTRF assay (Biological Example 3); type: binding; details: KRAS G12V, GTP-loaded
T3 construct: Avi-KRAS G12V (2-169)
Procedure, shortened: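 Each KRAS-GTP/RAF1 RBD complex at 50 nM, with 75 nM 3xFLAG-RAF1 RBD (51-131)-Avi, in 50 mM Tris pH 7.5, 100 mM NaCl, 5 mM MgCl2, 0.1% BSA, 0.01% Tween 20, 10% DMSO. Compounds titrated from 30 μM, 10-point 3x series; 1 h at room temperature with shaking. HTRF read, activity as percent of DMSO.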

[4] = KRAS G12D, GppNHp-loaded, class symbols
[5] = KRAS G12V, GppNHp-loaded, class symbols
[6] = KRAS G12D, GppNHp-loaded, Table 11
[7] = KRAS G12V, GppNHp-loaded, Table 11

T1 sequence (P01116 1-169 isoform P01116-2 G12D): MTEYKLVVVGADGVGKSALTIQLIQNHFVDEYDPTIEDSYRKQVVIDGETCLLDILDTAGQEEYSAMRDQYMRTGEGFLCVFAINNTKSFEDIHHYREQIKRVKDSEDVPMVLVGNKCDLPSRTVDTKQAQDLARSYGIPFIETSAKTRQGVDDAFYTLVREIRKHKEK
T3 sequence (P01116 2-169 isoform P01116-2 G12V): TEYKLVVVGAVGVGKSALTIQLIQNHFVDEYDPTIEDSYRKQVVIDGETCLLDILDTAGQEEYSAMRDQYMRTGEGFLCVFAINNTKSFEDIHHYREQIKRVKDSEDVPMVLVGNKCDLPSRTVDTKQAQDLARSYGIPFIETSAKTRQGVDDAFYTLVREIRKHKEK
T2 sequence (P01116 1-169 isoform P01116-2 G12V): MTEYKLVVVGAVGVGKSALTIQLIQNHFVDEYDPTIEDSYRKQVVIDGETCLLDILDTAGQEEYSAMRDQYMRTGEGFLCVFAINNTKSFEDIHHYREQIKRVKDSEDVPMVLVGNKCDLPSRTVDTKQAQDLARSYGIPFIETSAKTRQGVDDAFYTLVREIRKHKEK

Row | Compound | IC50 ([1]; KRAS G12D-GppNHp/RAF1 RBD HTRF) [nM] | IC50 ([2]; KRAS G12V-GppNHp/RAF1 RBD HTRF) [nM] | IC50 (GP2d cells (KRAS G12D); GP2d) [nM] | IC50 [3] [nM] | IC50 [1, 4] [nM] | IC50 [2, 5] [nM] | IC50 (GP2d cells (KRAS G12D); GP2d, pERK HTRF, class symbols) [nM] | IC50 (GP2d cells (KRAS G12D); GP2d, pERK HTRF) [nM] | further results
1 | C[C@@H]1[C@H](N(C)c2nc(OC[C@@]34CCCN3C[C@H](F)C4)nc3c(F)c(-c4ccc(F)c5sc(N)c(C#N)c45)c(C(F)(F)F)cc23)CCN1C(=O)C1CC1 (atropisomer, axis not shown) [Compound 333] | < 100 | 100 to 1000 | < 100 | 100 to 1000 |  |  |  |  | IC50 (GP2d cells (KRAS G12D); pERK HTRF): < 100 nM
2 | CCC(=O)N1CC[C@@H](N(C)c2nc(OC[C@@]34CCCN3C[C@H](F)C4)nc3c(F)c(-c4ccc(F)c5sc(N)c(C#N)c45)c(C(F)(F)F)cc23)[C@H]1C (atropisomer, axis not shown) [Compound 335] | < 100 | < 100 | < 100 | 100 to 1000 |  |  |  |  | IC50 (GP2d cells (KRAS G12D); pERK HTRF): < 100 nM
3 | CCN(c1nc(OC[C@@]23CCCN2C[C@H](F)C3)nc2c(F)c(-c3ccc(F)c4sc(N)c(C#N)c34)c(C(F)(F)F)cc12)[C@H]1CCN(C(=O)[C@H]2CCO2)C1 (atropisomer, axis not shown) [Compound 577] |  |  | < 100 | ≤ 100 | < 100 | < 100 | < 100 |  | 
4 | CCN(c1nc(OC[C@@]23CCCN2C[C@H](F)C3)nc2c(F)c(-c3ccc(F)c4sc(N)c(C#N)c34)c(C(F)(F)F)cc12)[C@H]1CCN(C(=O)C2CC2)[C@@H]1C (atropisomer, axis not shown) [Compound 579] |  |  | < 100 | 100 to 1000 | < 100 | < 100 | < 100 |  | 
5 | CCN(c1nc(OC[C@@]23CCCN2C[C@H](F)C3)nc2c(F)c(-c3ccc(F)c4sc(N)c(C#N)c34)c(C(F)(F)F)cc12)[C@H]1CCN(C(=O)c2ncco2)C1 (atropisomer, axis not shown) [Compound 584] |  |  |  |  | < 100 | < 100 | < 100 |  | 
6 | CCN(c1nc(OC[C@@]23CCCN2C[C@H](F)C3)nc2c(F)c(-c3ccc(F)c4sc(N)c(C#N)c34)c(C(F)(F)F)cc12)[C@H]1C[C@@H](C)N(C(=O)C2COC2)C1 (atropisomer, axis not shown) [Compound 586] |  |  | < 100 | 100 to 1000 | < 100 | 100 to 1000 | < 100 |  | 
7 | C[C@H](c1cccnc1N)N(C)c1nc(OC[C@@]23CCCN2C[C@H](F)C3)nc2c(F)c(-c3ccc(F)c4sc(N)c(C#N)c34)c(C(F)(F)F)cc12 (atropisomer, axis not shown) [Compound 600] |  |  | < 100 | ≤ 100 | < 100 | < 100 | < 100 |  | 
8 | CCN(c1nc(OC[C@@]23CCCN2C[C@H](F)C3)nc2c(F)c(-c3ccc(F)c4sc(N)c(C#N)c34)c(C(F)(F)F)cc12)[C@H]1CCN(C(=O)[C@@H]2CCO2)C1 (atropisomer, axis not shown) [Compound 603] |  |  | < 100 | ≤ 100 | < 100 | < 100 | < 100 |  | 
9 | CCN(c1nc(OC[C@@]23CCCN2C[C@H](F)C3)nc2c(F)c(-c3ccc(F)c4sc(N)c(C#N)c34)c(C(F)(F)F)cc12)[C@H]1C[C@@H]2CN(C)C(=O)N2C1 (atropisomer, axis not shown) [Compound 605] |  |  | < 100 | 100 to 1000 | < 100 | 100 to 1000 | < 100 |  | 
10 | CCN(c1nc(OC[C@@]23CCCN2C[C@H](F)C3)nc2c(F)c(-c3ccc(F)c4sc(N)c(C#N)c34)c(C(F)(F)F)cc12)[C@H]1CCN(C(=O)N2CC(F)C2)C1 (atropisomer, axis not shown) [Compound 606] |  |  | < 100 | ≤ 100 | < 100 | < 100 | < 100 |  | 
11 | CCN(c1nc(OC[C@@]23CCCN2C[C@H](F)C3)nc2c(F)c(-c3ccc(F)c4sc(N)c(C#N)c34)c(C(F)(F)F)cc12)[C@H]1C[C@H](C)N(C(=O)[C@@H]2CC2(F)F)C1 (atropisomer, axis not shown) [Compound 751] |  |  |  |  | < 100 | < 100 | < 100 |  | 
12 | N#Cc1c(N)sc2c(F)ccc(-c3c(C(F)(F)F)cc4c(N5CC6CC5CO6)nc(OC[C@@]56CCCN5C[C@H](F)C6)nc4c3F)c12 (stereo partly drawn) [Compound 147] |  |  |  |  |  |  |  | < 100 | IC50 [1, 6]: 100 to 1000 nM; IC50 [2, 7]: 100 to 1000 nM
13 | N#Cc1c(N)sc2c(F)ccc(-c3c(C(F)(F)F)cc4c(N5CCC[C@@H](O)C5)nc(OC[C@@]56CCCN5C[C@H](F)C6)nc4c3F)c12 [Compound 234] |  |  |  |  |  |  |  | < 100 | IC50 [1, 6]: 100 to 1000 nM; IC50 [2, 7]: 100 to 1000 nM
14 | C[C@@H]1[C@H](N(C)c2nc(OC[C@@]34CCCN3C[C@H](F)C4)nc3c(F)c(-c4ccc(F)c5sc(N)c(C#N)c45)c(C(F)(F)F)cc23)CCN1C(=O)C1CC1 [Compound 258] |  |  |  |  |  |  |  | < 100 | IC50 [1, 6]: < 100 nM; IC50 [2, 7]: 100 to 1000 nM
15 | CCC(=O)N1CC[C@@H](N(C)c2nc(OC[C@@]34CCCN3C[C@H](F)C4)nc3c(F)c(-c4ccc(F)c5sc(N)c(C#N)c45)c(C(F)(F)F)cc23)[C@H]1C [Compound 260] |  |  |  |  |  |  |  |  | IC50 [1, 6]: < 100 nM; IC50 [2, 7]: 100 to 1000 nM; IC50 (GP2d cells (KRAS G12D); pERK HTRF): < 100 nM
16 | CCN(c1nc(OC[C@@]23CCCN2C[C@H](F)C3)nc2c(F)c(-c3ccc(F)c4sc(N)c(C#N)c34)c(Cl)cc12)[C@@H]1CCN(C(C)=O)[C@@H]1C [Compound 323] | 100 to 1000 | 100 to 1000 |  |  |  |  |  | < 100 | 
17 | CCN(c1nc(OC[C@@]23CCCN2C[C@H](F)C3)nc2c(F)c(-c3ccc(F)c4sc(N)c(C#N)c34)c(Cl)cc12)[C@@H]1CCN(C(=O)C2CC2)[C@@H]1C [Compound 337] | 100 to 1000 | 100 to 1000 |  |  |  |  |  | < 100 | 
18 | CN(Cc1cccnc1N)c1nc(OC[C@@]23CCCN2C[C@H](F)C3)nc2c(F)c(-c3ccc(F)c4sc(N)c(C#N)c34)c(C(F)(F)F)cc12 [Compound 390] | 100 to 1000 | < 100 |  |  |  |  |  | < 100 | 
19 | N#Cc1cnn2c1CN(c1nc(OC[C@@]34CCCN3C[C@H](F)C4)nc3c(F)c(-c4ccc(F)c5sc(N)c(C#N)c45)c(C(F)(F)F)cc13)CC2 [Compound 392] | 100 to 1000 | 100 to 1000 |  |  |  |  |  | < 100 | 
20 | CC(=O)N1CC[C@@H](N(C)c2nc(OC[C@@]34CCCN3C[C@H](F)C4)nc3c(F)c(-c4ccc(F)c5sc(N)c(C#N)c45)c(Cl)cc23)[C@H]1C [Compound 398] | 100 to 1000 | 100 to 1000 |  |  |  |  |  | < 100 | 
21 | C[C@@H]1[C@H](N(C)c2nc(OC[C@@]34CCCN3C[C@H](F)C4)nc3c(F)c(-c4ccc(F)c5sc(N)c(C#N)c45)c(C(F)(F)F)cc23)CC(=O)N1C [Compound 440] | 100 to 1000 | 100 to 1000 |  |  |  |  |  | < 100 | 
22 | CCC(=O)N1C[C@@H](N(CC)c2nc(OC[C@@]34CCCN3C[C@H](F)C4)nc3c(F)c(-c4ccc(F)c5sc(N)c(C#N)c45)c(C(F)(F)F)cc23)C[C@H]1C [Compound 442] | 100 to 1000 | 100 to 1000 |  |  |  |  |  | < 100 | 
23 | CCN(c1nc(OC[C@@]23CCCN2C[C@H](F)C3)nc2c(F)c(-c3ccc(F)c4sc(N)c(C#N)c34)c(C(F)(F)F)cc12)[C@H]1C[C@H](C)N(C(C)=O)C1 [Compound 463] | < 100 | < 100 |  |  |  |  |  | < 100 | 
24 | CCN(c1nc(OCC23CCCN2CC(F)C3)nc2c(F)c(-c3ccc(F)c4sc(N)c(C#N)c34)c(C(F)(F)F)cc12)C1CC(C)N(C(=O)N2CC(F)C2)C1 (stereo not drawn) [Compound 759] |  |  |  |  | < 100 | < 100 |  |  | IC50 (GP2d cells (KRAS G12D); pERK HTRF, class symbols): < 100 nM
